# Columns and labels:
# [1] = biological target: T1, G-protein coupled receptor 6 (Homo sapiens, UniProt P46095); test: Modulation activity at GPR6 receptor (unknown origin) expressed in CHO-K1 cells assessed as inhibition of constitutive cAMP activity incubated for 45 mins by Perkin Elmer Lance HTRF Ultrac-AMP assay; assay type: functional, cell-based
# [2] = biological target: T1, G-protein coupled receptor 6; test: Modulation activity at GPR6 receptor (unknown origin) expressed in CHO-K1 cells assessed as inhibition of constitutive cAMP activity incubated for 45 mins in presence of 300 uM IBMX by Perkin Elmer Lance HTRF Ultrac-AMP assay; assay type: functional, cell-based; details: cho-k1
# Rattus norvegicus = test: Reversal of haloperidol-induced catalepsy in Sprague-Dawley rat model of Parkinson's disease assessed as reduction in catalepsy intensity index at 0.1 mg/kg, ip dosed along with haloperidol and measured after 30 mins relative to untreated control; assay type: functional; parameters: scale not given: the % may be the effect or the level left
# T1 sequence (P46095 whole entry): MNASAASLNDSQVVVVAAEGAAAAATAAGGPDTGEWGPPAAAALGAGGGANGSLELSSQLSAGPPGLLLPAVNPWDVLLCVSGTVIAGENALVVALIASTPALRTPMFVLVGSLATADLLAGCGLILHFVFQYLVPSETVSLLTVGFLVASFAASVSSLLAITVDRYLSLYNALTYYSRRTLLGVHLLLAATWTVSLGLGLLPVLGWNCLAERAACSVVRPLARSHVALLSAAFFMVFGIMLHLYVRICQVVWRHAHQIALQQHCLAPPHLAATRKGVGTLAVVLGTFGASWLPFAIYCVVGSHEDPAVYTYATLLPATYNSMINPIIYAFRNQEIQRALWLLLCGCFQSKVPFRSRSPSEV
IC50 [1] [nM],SMILES,other results
23.2,CC1Cc2nc(NCC(F)F)c(N3CCC(Oc4ccc(F)cc4F)CC3)nc2CN1C (configuration not stated),
23.9,CC1Cc2nc(NCC(F)F)c(N3CCC(Oc4ccc(F)cc4F)CC3)nc2CN1C(=O)C1CC1 (configuration not stated),
105,CC(=O)N1CCc2nc(NC(C)C)c(N3CCC(Oc4ccc(C#N)cc4F)CC3)nc2C1,
9.1,CN(C)C(=O)N1CCc2nc(NCC(F)F)c(N3CCC(Oc4ccc(F)cc4F)CC3)nc2C1,
78.8,O=C(C(F)F)N1CCc2nc(N3CCC(Oc4ccc(F)cc4F)CC3)c(NCC(F)F)nc2C1,
6.6,CO[C@H](C)C(=O)N1CCc2nc(NCC(F)F)c(N3CCC(Oc4ccc(F)cc4F)CC3)nc2C1,
122,CC(C)Nc1nc2c(nc1N1CCC(Oc3ccc(C#N)cc3F)CC1)CN(C(=O)C1CC1)CC2,
24.9,CC(=O)N1Cc2nc(N3CCC(Oc4ccc(F)cc4F)CC3)c(NCC(F)F)nc2CC1C (configuration not stated),
16.8,COC(C)C(=O)N1CCc2nc(N3CCC(Oc4ccc(F)cc4F)CC3)c(NC(C)C)nc2C1 (configuration not stated),
52,CC1c2nc(N3CCC(Oc4ccc(F)cc4F)CC3)c(NCC(F)F)nc2CCN1S(C)(=O)=O (configuration not stated),
16.6,COc1ccc(OC2CCN(c3nc4c(nc3NC(C)C)CCN(C(=O)N(C)C)C4)CC2)c(F)c1,
8.5,CC(=O)N1CCc2nc(NC(C)C)c(N3CCC(C(F)c4ccc(F)cc4F)CC3)nc2C1 (configuration not stated),
87,CC1c2nc(NCC(F)F)c(N3CCC(Oc4ccc(F)cc4F)CC3)nc2CCN1S(C)(=O)=O (configuration not stated),
13.8,COc1ccc(OC2CCN(c3nc4c(nc3NC3CCC3)CCN(C(=O)N(C)C)C4)CC2)c(F)c1,
24.9,CC(C)Nc1nc2c(nc1N1CCC(C(=O)c3cc(Cl)ccc3F)CC1)CN(C(=O)N(C)C)CC2,
18.5,CO[C@H](C)C(=O)N1Cc2nc(N3CCC(Oc4ccc(F)cc4F)CC3)c(NCC(F)F)nc2CC1C (some centres not stated),
18,CC(C)Nc1nc2c(nc1N1CCC(Oc3ccc(F)cc3F)CC1)CN(C(=O)CC#N)CC2,
17.3,COCC(=O)N1CCc2nc(NC(C)C)c(N3CCC(Oc4ccc(F)cc4F)CC3)nc2C1,
57.2,CS(=O)(=O)N1CCc2nc(N3CCC(Oc4ccc(F)cc4F)CC3)c(NCC(F)F)nc2C1,
22.1,CC1Cc2nc(NCC(F)F)c(N3CCC(Oc4ccc(F)cc4F)CC3)nc2CN1C(=O)C(F)F (configuration not stated),
11.5,CC(=O)N1CCc2nc(NCC(F)F)c(N3CCC(Oc4ccc(F)cc4F)CC3)nc2C1,
,CC(=O)N1CCc2nc(N3CCC(Oc4ccc(F)cc4F)CC3)c(NC(C)C)nc2C1,IC50 [2]: 24.6 nM; Activity (Rattus norvegicus): -5.7%

IC50 [1] [nM],SMILES,other results
10.4,CC(C)Nc1nc2c(nc1N1CCC(Oc3ccc(F)cc3F)CC1)CCN(C(=O)N(C)C)C2,
68,COCC(=O)N1CCc2nc(NCC(F)F)c(N3CCC(Oc4ccc(F)cc4F)CC3)nc2C1C (configuration not stated),
9.8,CC(=O)N1CCc2nc(NC(C)C)c(N3CCC(C(=O)c4cc(Cl)ccc4F)CC3)nc2C1,
9.5,CC(=O)N1CCc2nc(NC(C)C)c(N3CCC(Oc4ccc(F)cc4F)CC3)nc2C1,IC50 [2]: 73.7 nM
111,CO[C@@H](C)C(=O)N1CCc2nc(N3CCC(Oc4ccc(F)cc4F)CC3)c(NCC(F)F)nc2C1,
12,COc1ccc(OC2CCN(c3nc4c(nc3NC3CCC3)CCN(C(C)=O)C4)CC2)c(F)c1,
9.4,CN1CCc2nc(NC3CC3)c(N3CCC(C(F)c4ccc(F)cc4F)CC3)nc2C1 (configuration not stated),
19.9,COc1ccc(OC2CCN(c3nc4c(nc3NC3CCC3)CN(C(C)=O)CC4)CC2)c(F)c1,
32.7,CC(C)Nc1nc2c(nc1N1CCC(C(=O)c3cc(Cl)ccc3F)CC1)CCN(C(=O)N(C)C)C2,
19.7,CC(C)Nc1nc2c(nc1N1CCC(C(F)c3ccc(F)cc3F)CC1)CCN(C(=O)N(C)C)C2 (configuration not stated),
23,COCC(=O)N1Cc2nc(N3CCC(Oc4ccc(F)cc4F)CC3)c(NCC(F)F)nc2CC1C (configuration not stated),
26.9,CN(C)C(=O)N1CCc2nc(N3CCC(Oc4ccc(F)cc4F)CC3)c(NCC(F)F)nc2C1,
126,CC1c2nc(N3CCC(Oc4ccc(F)cc4F)CC3)c(NCC(F)F)nc2CCN1C(=O)C1CC1 (configuration not stated),
14.9,COCCNC(=O)N1CCc2nc(NC(C)C)c(N3CCC(Oc4ccc(F)cc4F)CC3)nc2C1,
208,COCC(=O)N1CCc2nc(N3CCC(Oc4ccc(F)cc4F)CC3)c(NCC(F)F)nc2C1C (configuration not stated),
17.9,CC(C)Nc1nc2c(nc1N1CCC(Oc3ccc(F)cc3F)CC1)CCN(C(=O)C1CCCO1)C2 (configuration not stated),
38.7,CC(C)Nc1nc2c(nc1N1CCC(Oc3ccc(F)cc3F)CC1)CCN(C(=O)c1ccno1)C2,
26.6,COc1ccc(OC2CCN(c3nc4c(nc3NC(C)C)CCN(C)C4)CC2)c(F)c1,
98,CC(C)Nc1nc2c(nc1N1CCC(Oc3ccc(F)cc3F)CC1)C(C)N(S(C)(=O)=O)CC2 (configuration not stated),
13.4,CC(=O)N1CCc2nc(N3CCC(C(F)c4ccc(F)cc4F)CC3)c(NC(C)C)nc2C1 (configuration not stated),
19.5,CC(C)Nc1nc2c(nc1N1CCC(Oc3ccc(F)cc3F)CC1)CN(C(=O)C1CCCO1)CC2 (configuration not stated),
76,CC(=O)N1CCc2nc(NCC(F)F)c(N3CCC(Oc4ccc(F)cc4F)CC3)nc2C1C (configuration not stated),

SMILES,IC50 [1] [nM],other results
CC(C)Nc1nc2c(nc1N1CCC(Oc3ccc(F)cc3F)CC1)CN(C(=O)N(C)C)CC2,13.8,

# Source: ChEMBL document CHEMBL4419121, “Tetrahydropyridopyrazines modulators of gpr6” (2018)
